For the test, the system named is A498 complex spheroid viability. The test can be described thus: Anticancer human tumor A498 cell line growth inhibition.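 On all read-outs here: spheroids exposed to agents for seven days before readout.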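 On viability, T/C: 100% = DMSO vehicle-treated spheroids.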 Conditions: for viability, T/C: stronger effect = lower value. The method in brief: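 Complex spheroids of tumor cells with HUVEC and human MSCs, exposed to iadademstat combined with other agents. Each agent tested in half-log steps from near clinical Cmax (else 10 microM top), DMSO ≤0.25%.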

Setting [1] is: curve of first compound, second compound 0.1 µM.
Where [2] appears, read: curve of first compound, second compound 0.316 µM.
Where [3] appears, read: curve of first compound, second compound 1 µM.
Where [4] appears, read: curve of first compound, second compound 3.16 µM.
Where [5] appears, read: curve of first compound, second compound 10 µM.
The mark [6] stands for this setting: second compound 0.1 µM, first compound 0.00949 µM.
The mark [7] stands for this setting: second compound 0.1 µM, first compound 0.03 µM.
Setting [8] is: second compound 0.1 µM, first compound 0.0949 µM.
Setting [9] is: second compound 0.1 µM, first compound 0.3 µM.
Setting [10] is: second compound 0.1 µM, first compound 0.949 µM.
Where [11] appears, read: second compound 0.1 µM, first compound 3 µM.
[12] abbreviates: second compound 0.316 µM, first compound 0.00949 µM.
Setting [13] is: second compound 0.316 µM, first compound 0.03 µM.
[14] abbreviates: second compound 0.316 µM, first compound 0.0949 µM.
[15] abbreviates: second compound 0.316 µM, first compound 0.3 µM.
The mark [16] stands for this setting: second compound 0.316 µM, first compound 0.949 µM.
[17] abbreviates: second compound 0.316 µM, first compound 3 µM.
Where [18] appears, read: second compound 1 µM, first compound 0.00949 µM.
Where [19] appears, read: second compound 1 µM, first compound 0.03 µM.
Setting [20] is: second compound 1 µM, first compound 0.0949 µM.
Setting [21] is: second compound 1 µM, first compound 0.3 µM.
The mark [22] stands for this setting: second compound 1 µM, first compound 0.949 µM.
Where [23] appears, read: second compound 1 µM, first compound 3 µM.
[24] abbreviates: second compound 3.16 µM, first compound 0.00949 µM.
Where [25] appears, read: second compound 3.16 µM, first compound 0.03 µM.
Where [26] appears, read: second compound 3.16 µM, first compound 0.0949 µM.
Setting [27] is: second compound 3.16 µM, first compound 0.3 µM.
Setting [28] is: second compound 3.16 µM, first compound 0.949 µM.
Setting [29] is: second compound 3.16 µM, first compound 3 µM.
The mark [30] stands for this setting: second compound 10 µM, first compound 0.00949 µM.
Setting [31] is: second compound 10 µM, first compound 0.03 µM.
[32] abbreviates: second compound 10 µM, first compound 0.0949 µM.
Where [33] appears, read: second compound 10 µM, first compound 0.3 µM.
[34] abbreviates: second compound 10 µM, first compound 0.949 µM.
[35] abbreviates: second compound 10 µM, first compound 3 µM.

Where “and” joins values, the source holds several entries; their conditions need not be identical. Equal entries are not always repeated.

One may read the viability, T/C as the ratio of treated to control. For orientation: IC50 means the midpoint of a concentration-inhibition curve. For the compound `CC1COCCN1c1cc(C2(S(C)(=N)=O)CC2)nc(-c2ccnc3[nH]ccc23)n1` (centres undefined), the viability, T/C reads like this: (compound 0.0316 µM) 98.7% and 99.7%; (compound 0.1 µM) 98.2% and 97.2%; (compound 0.316 µM) 69.6% and 68.1%; (compound 1 µM) 34.2% and 28.7%; (compound 3.16 µM) 19% and 19.6%; (compound 10 µM) 13.1% and 12%. In addition, the IC50 (curve of compound) was 605 nM and 543 nM.
Take `CC[C@@]1(O)C(=O)OCc2c1cc1n(c2=O)Cc2cc3c(CN(C)C)c(O)ccc3nc2-1` + NC1CCC(NC2CC2c2ccccc2)CC1: the IC50 was determined as 39.6 nM under setting [1]; 47.3 nM under setting [2]; 38.4 nM under setting [3]; 36.3 nM under setting [4]; 29.3 nM under setting [5]. Further, the viability, T/C by setting is: (second compound 0.1 µM, first compound 0.000316 µM) 82.3%; (second compound 0.1 µM, first compound 0.001 µM) 82.9%; (second compound 0.1 µM, first compound 0.00316 µM) 71.7%; (second compound 0.1 µM, first compound 0.01 µM) 61.2%; (second compound 0.1 µM, first compound 0.0316 µM) 57.5%; (second compound 0.1 µM, first compound 0.1 µM) 35.7%. For the same compound, the viability, T/C was 96.6% (second compound 0.316 µM, first compound 0.000316 µM); 88.2% (second compound 0.316 µM, first compound 0.001 µM); 81.8% (second compound 0.316 µM, first compound 0.00316 µM); 68% (second compound 0.316 µM, first compound 0.01 µM); 59.1% (second compound 0.316 µM, first compound 0.0316 µM); 37.4% (second compound 0.316 µM, first compound 0.1 µM). The viability, T/C is 85.3% (second compound 1 µM, first compound 0.000316 µM); 82.3% (second compound 1 µM, first compound 0.001 µM); 78.8% (second compound 1 µM, first compound 0.00316 µM); 62.8% (second compound 1 µM, first compound 0.01 µM); 56.6% (second compound 1 µM, first compound 0.0316 µM); 32.2% (second compound 1 µM, first compound 0.1 µM). Further, the viability, T/C by setting is: (second compound 3.16 µM, first compound 0.000316 µM) 78.7%; (second compound 3.16 µM, first compound 0.001 µM) 81.5%; (second compound 3.16 µM, first compound 0.00316 µM) 73.1%; (second compound 3.16 µM, first compound 0.01 µM) 64.8%; (second compound 3.16 µM, first compound 0.0316 µM) 53.7%; (second compound 3.16 µM, first compound 0.1 µM) 30.6%. In addition, the viability, T/C is, setting by setting: (second compound 10 µM, first compound 0.000316 µM) 76.9%; (second compound 10 µM, first compound 0.001 µM) 79%; (second compound 10 µM, first compound 0.00316 µM) 69.8%; (second compound 10 µM, first compound 0.01 µM) 61.9%; (second compound 10 µM, first compound 0.0316 µM) 50.1%; (second compound 10 µM, first compound 0.1 µM) 28%.
For the compound `CC1(C)CCC(CN2CCN(c3ccc(C(=O)NS(=O)(=O)c4ccc(NCC5CCOCC5)c([N+](=O)[O-])c4)c(Oc4cnc5[nH]ccc5c4)c3)CC2)=C(c2ccc(Cl)cc2)C1`, the viability, T/C runs as follows: (compound 0.0316 µM) 103% and 98.6%; (compound 0.1 µM) 107% and 105%; (compound 0.316 µM) 97.5% and 95.6%; (compound 1 µM) 93% and 88.7%; (compound 3.16 µM) 74.2% and 67.7%; (compound 10 µM) 6.84% and 8.34%. Further, where the note is “curve of compound”, the IC50 is 4720 nM and 4390 nM.
For `NS(=O)(=O)OCC1CC(n2ccc3c(NC4CCc5ccccc54)ncnc32)CC1O` (centres undefined) + NC1CCC(NC2CC2c2ccccc2)CC1, the IC50 is, setting by setting: under setting [1], 20.8 nM; under setting [2], 20.2 nM; under setting [3], less than 9.49 nM; under setting [4], less than 9.49 nM; under setting [5], less than 9.49 nM. Moreover, the viability, T/C by setting is: under setting [6], 61.1%; under setting [7], 43.3%; under setting [8], 35%; under setting [9], 24%; under setting [10], 19.4%; under setting [11], 15.3%. In addition, the viability, T/C runs as follows: under setting [12], 64.5%; under setting [13], 41.2%; under setting [14], 30.8%; under setting [15], 22.7%; under setting [16], 17.8%; under setting [17], 15.6%. Further, the viability, T/C by setting is: under setting [18], 47.8%; under setting [19], 29.6%; under setting [20], 21.4%; under setting [21], 19.5%; under setting [22], 14.3%; under setting [23], 11.8%. Moreover, the viability, T/C by setting is: under setting [24], 31.8%; under setting [25], 15.6%; under setting [26], 16.6%; under setting [27], 11.5%; under setting [28], 8.41%; under setting [29], 6.43%. Also, the viability, T/C is 11.8% under setting [30]; 8.27% under setting [31]; 6.84% under setting [32]; 5.05% under setting [33]; 4.15% under setting [34]; 6.13% under setting [35].
Turning to `CCN(c1cc(-c2ccc(CN3CCOCC3)cc2)cc(C(=O)NCc2c(C)cc(C)[nH]c2=O)c1C)C1CCOCC1` + NC1CCC(NC2CC2c2ccccc2)CC1, the half-inhibitory concentration (IC50) is more than 3000 nM under setting [1]; more than 3000 nM under setting [2]; more than 3000 nM under setting [3]; more than 3000 nM under setting [4]; more than 3000 nM under setting [5]. Further, the viability, T/C under setting [6] was 85.8%; the viability, T/C under setting [7] is 90.7%; the viability, T/C under setting [8] was 92.1%; the viability, T/C under setting [9] was 91.4%; the viability, T/C under setting [10] was 94.4%; the viability, T/C under setting [11] is 92.9%. In addition, the viability, T/C reads like this: under setting [12], 93.2%; under setting [13], 101%; under setting [14], 100%; under setting [15], 98.9%; under setting [16], 92.4%; under setting [17], 92.9%. The viability, T/C is, setting by setting: under setting [18], 91.7%; under setting [19], 97%; under setting [20], 97.3%; under setting [21], 90.1%; under setting [22], 86.8%; under setting [23], 87.2%. Further, the viability, T/C by setting is: under setting [24], 87.3%; under setting [25], 95%; under setting [26], 90.6%; under setting [27], 89.1%; under setting [28], 85.8%; under setting [29], 78.2%. The viability, T/C was 80.4% under setting [30]; 87.5% under setting [31]; 88.4% under setting [32]; 82.1% under setting [33]; 82.7% under setting [34]; 72.9% under setting [35].

Source of the values: PubChem BioAssay AID1918947 (Molecular Pharmacology Branch, DTP, NCI, 2023).
